Structures can show the parent of a compound that is named as a salt. Where two headings read alike, the source gives them in different places.
Key:
[1] = biological target: T1, 5-HT1A (Rattus norvegicus, UniProt P19327); experiment: Binding to the 5-HT1A receptor (displacement of [3H]8-OH-DPAT); parameters: Brains from male Sprague-Dawley 180-200 g rats; tissue Iffa Credo, France (animals); host or cells: rat brain cortex; species or system rat (male Sprague-Dawley), brain cortex; conditions: for Ki: read-out: pKi 5-HT1A (converted)
T1 sequence (P19327 1-422): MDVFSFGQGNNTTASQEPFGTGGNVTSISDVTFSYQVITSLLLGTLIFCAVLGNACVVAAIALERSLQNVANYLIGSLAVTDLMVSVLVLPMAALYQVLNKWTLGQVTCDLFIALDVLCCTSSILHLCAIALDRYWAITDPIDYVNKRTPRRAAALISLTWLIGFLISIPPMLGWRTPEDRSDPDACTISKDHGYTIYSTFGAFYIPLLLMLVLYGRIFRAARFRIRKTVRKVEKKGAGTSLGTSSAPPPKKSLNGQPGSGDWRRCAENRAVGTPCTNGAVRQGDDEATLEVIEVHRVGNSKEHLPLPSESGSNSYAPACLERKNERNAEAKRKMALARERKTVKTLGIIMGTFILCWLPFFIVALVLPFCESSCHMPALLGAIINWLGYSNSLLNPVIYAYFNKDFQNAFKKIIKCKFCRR
Experimental: (§1) Binding to the 5-HT1A, D2 dopaminergic and α1-adrenergic receptors:
(§2) Brains from male Sprague-Dawley 180-200 g rats [Ico: OFA SD (I.O.P.S. Caw); Iffa Credo, France], maintained at -70° C., were used in all the studies.
(§3) The affinity of the products for the various receptors was determined by displacement of radioactive ligands under the conditions summarized in Table 1.
(§4) The reaction is halted by rapid filtration, under vacuum, through Whatman GF/B filters and the tubes are rinsed with 2×5 ml of Tris-HCl 50 mM, pH 7.4, buffer at 25° C. The radioactivity collected on the filter is analyzed by liquid scintillation after addition of 4 ml of liquid scintillant (Emulsifier Safe, Packard). All the experiments are carried out in triplicate.
(§5) The inhibition constants (Ki) of the products are estimated from the displacement experimentations by using the EBDA (equilibrium binding data analysis) Radlig version 4 nonlinear regression program (Biosoft, Cambridge, UK; McPherson, 1985).
(§6) The pKi (-log Ki) values are given in the form of the mean ± SEM of at least 3 experimentations (Table 2).

[2] = biological target: T1, 5-HT1A; experiment: Serotoninergic (5-HT) syndrome; type: in vivo, male rat (Sprague-Dawley); parameters: carried out with the male rat (Sprague-Dawley); from tissue; host or cells: whole living rat (in vivo); conditions: po, male rat
Experimental: The central activity of the compounds of the invention was evaluated by their ability to provoke the 5-HT syndrome, which is characterized by:
an alternating bending and stretching of the forepaws (reciprocal fore-paw treading: FPT)
the retraction of the lower lip (lower lip on: LLR)
a position or the ventral surface of the animal is incobtact with the ground and the hind paws extended (flat body posture: FBP).
The experiments on the evaluation of the 5-HT syndrome are carried out with the male rat (Sprague-Dawley) according to the technique described by F. C. Colpaert et al. (Drug. Dev. Res, 26, 21-48, 1992) and M. S. Kleven et al. (J.P.E.T., 282, 747-759, 1997).

[3] = biological target: T2, D2 dopaminergic receptor (Rattus norvegicus, UniProt P61169); experiment: Binding to the D2 dopaminergic receptor (displacement of [3H]YM-09151-2); parameters: species or system rat (male Sprague-Dawley), brain striatum; conditions: read-out: pKi D2 (converted)
T2 construct: Brains from male Sprague-Dawley 180-200 g rats; tissue Iffa Credo, France (animals); host or cells: rat brain striatum
T2 sequence (P61169 whole entry): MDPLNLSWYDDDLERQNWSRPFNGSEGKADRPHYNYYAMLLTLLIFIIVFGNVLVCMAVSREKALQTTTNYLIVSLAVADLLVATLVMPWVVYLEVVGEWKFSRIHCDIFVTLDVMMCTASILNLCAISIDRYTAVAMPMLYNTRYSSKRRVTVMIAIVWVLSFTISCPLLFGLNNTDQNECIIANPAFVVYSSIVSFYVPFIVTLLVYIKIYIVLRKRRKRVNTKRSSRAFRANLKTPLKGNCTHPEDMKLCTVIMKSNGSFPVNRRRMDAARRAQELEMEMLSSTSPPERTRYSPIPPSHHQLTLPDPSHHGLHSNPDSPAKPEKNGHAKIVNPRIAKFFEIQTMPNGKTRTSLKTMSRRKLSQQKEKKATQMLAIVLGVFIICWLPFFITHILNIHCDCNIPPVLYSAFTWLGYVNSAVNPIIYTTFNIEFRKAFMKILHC
Experimental: as §1, §2, §3, §4, §5, §6

[4] = biological target: α1-adrenergic receptor; experiment: Binding to the α1-adrenergic receptor (displacement of [3H]Prazosin); parameters: species or system rat (male Sprague-Dawley), brain cortex; conditions: rat cortex, 30 min, 23 °C, mean of at least 3 experimentations
Experimental: as §1, §2, §3, §4, §5, §6
Experimental conditions for binding to the receptors
[^3 H] ligand Incubation binding
Concen- Tissue Temper- Concen-
Binding KD tration Concen- Time ature tration
site (nM) (nM) Type tration (min) (° C.) Product (μM)
Buffers: (A) Tris HCl 50 mM pH 7.4, pargyline 10 μM, CaCl2 4 mM,
0.1% ascorbic acid; (B) Tris HCl 50 mM pH 7.4, NaCl 120 mM, KCl 5 mM; (C)

[5] = Antidepressant activity: forced swimming test; type: in vivo; conditions: po, percentage of animals with significant decrease vs control (p<0.05), read-out: ED50 (decrease in the immobility time)
[6] = flat body posture (FBP), read-out: 5-HT syndrome ED50 FBP
[7] = lower lip retraction (LLR), read-out: 5-HT syndrome ED50 LLR
[8] = reciprocal fore-paw treading (FPT), read-out: 5-HT syndrome ED50 FPT

| Molecule | pKi 5-HT1A ([1]; [3H]8-OH-DPAT, rat cortex, 30 min, 23 °C, mean of at least 3 experimentations) | 5-HT syndrome ED50 FBP ([2]; flat body posture (FBP)) [mg/kg] | 5-HT syndrome ED50 LLR ([2]; lower lip retraction (LLR)) [mg/kg] | 5-HT syndrome ED50 FPT ([2]; reciprocal fore-paw treading (FPT)) [mg/kg] | Ki [3] [nM] | Ki [1] [nM] | pKi α1 [4] | ED50 [5] [mg/kg] | ED50 [2, 6] [mg/kg] | ED50 [2, 7] [mg/kg] | ED50 [2, 8] [mg/kg] |
| --- | --- | --- | --- | --- | --- | --- | --- | --- | --- | --- | --- |
| 5-[4-[4-(5-Chloro-2-methoxyphenyl)-piperazin-1-yl]butoxy]-2-methyl-2H- [1,2,4]triazin-3-one fumarate [Compound 17] | 9.89 | 0.31 | 0.08 | 0.31 |  |  |  |  |  |  |  |
| Cn1ncc(OCC[C@H]2CC[C@@H]3CN(c4ncccn4)CCN3C2)nc1=O (relative stereo) [Compound 24, trans-2-Methyl-5-[2-(2-pyrimidin-2-yl-octahydropyrido[1,2-a]pyrazin-7-yl)ethoxy]-2H-[1,2,4]triazin-3-one] |  |  |  |  | 2880 | 0.525 | 6.35 | 0.04 | 0.08 | < 0.04 | 0.08 |
| Cn1ncc(OCC[C@H]2CC[C@@H]3CN(c4ncccn4)CCN3C2)nc1=O (single isomer, unassigned) [Compound 26] |  |  |  |  |  | 0.245 |  | 0.04 | < 0.04 | < 0.04 | 0.04 |
| O=C1CC2(CCCC2)CC(=O)N1CCCCN1CCN(c2ncccn2)CC1 [Buspirone, reference compound] |  |  |  |  |  |  | 6.19 | > 160 |  |  | > 40 |
| Cn1ncc(OCCCCN2CCN(c3ncccn3)CC2)nc1=O [Compound 1, 2-Methyl-5-[4-(4-pyrimidin-2-yl-piperazin-1-yl)butoxy]-2H-[1,2,4]triazin-3-one] |  |  |  |  | 1580 | 0.676 | 6.25 |  | 0.08 | 0.02 | 0.08 |
| Cc1ccnc(N2CCN(CCCCOc3cnn(C)c(=O)n3)CC2)n1.O=C(O)/C=C/C(=O)O [Compound 2, 2-Methyl-5-[4-[4-(4-methylpyrimidin-2-yl)piperazin-1-yl]butoxy]-2H-[1,2,4]triazin-3-one fumarate] |  |  |  |  | 1740 | 0.269 | 6.11 | 0.04 | 0.08 | 0.02 | 0.08 |
| Cc1cc(C)nc(N2CCN(CCCCOc3cnn(C)c(=O)n3)CC2)n1.O=C(O)/C=C/C(=O)O [Compound 3, 5-[4-[4-(4,6-Dimethylpyrimidin-2-yl)piperazin-1-yl]butoxy]-2-methyl-2H-[1,2,4]triazin-3-one fumarate] |  |  |  |  | 1120 | 0.275 | 6.01 |  | 0.08 | 0.08 | 0.08 |
| COc1ccnc(N2CCN(CCCCOc3cnn(C)c(=O)n3)CC2)n1 [Compound 4, 5-[4-[4-(4-Methoxypyrimnidin-2-yl)piperazin-1-yl]butoxy]-2-methyl-2H-[1,2,4]triazin-3-one fumarate] |  |  |  |  | 2240 | 0.138 | 6.74 |  | 0.08 | < 0.04 | 0.08 |
| Cn1ncc(OCCCCN2CCN(c3nccc(Cl)n3)CC2)nc1=O [Compound 6, 5-[4-[4-(4-Chloropyrimidin-2-yl)piperazin-1-yl]butoxy]-2-methyl-2H-[1,2,4]triazin-3-one] |  |  |  |  | 1700 | 0.209 | 6.25 | 0.63 | 0.08 | 0.08 | 0.08 |
| Cn1ncc(OCCCCN2CCN(c3ncc(F)cn3)CC2)nc1=O [Compound 7, 5-[4-[4-(5-Fluoropyrimidin-2-yl)piperazin-1-yl]butoxy]-2-methyl-2H-[1,2,4]triazin-3-one] |  |  |  |  |  | 0.912 |  |  | 0.31 | 0.08 | 0.31 |
| COc1cccnc1N1CCN(CCCCOc2cnn(C)c(=O)n2)CC1 [Compound 15, 5-[4-[4-(3-Methoxypyridin-2-yl)piperazin-1-yl]butoxy]-2-methyl-2H-[1,2,4]triazin-3-one fumarate] |  |  |  |  |  | 0.263 |  |  |  |  |  |
| Cn1ncc(OCCCCN2CCN(c3cccc(Cl)c3)CC2)nc1=O [Compound 16, 5-[4-[4-(3-Chlorophenyl)piperazin-1-yl]Butoxy]-2-methyl-2H-[1,2,4]Triazin-3-one fumarate] |  |  |  |  |  | 0.0759 |  |  |  |  |  |
| COc1ccc(Cl)cc1N1CCN(CCCCOc2cnn(C)c(=O)n2)CC1 [Compound 19, 5-[4-[4-(5-Chloro-2-methoxyphenyl)-piperazin-1-yl]butoxyl-2-methyl-2H-[1,2,4]triazin-3-one fumarate] |  |  |  |  | 15.1 | 0.309 | 8.21 |  |  |  |  |
| Cn1ncc(OCCCCNCC2COc3ccccc3O2)nc1=O (stereo not shown) [Compound 20, 5-[4-((2,3-Dihydrobenzo[1,4]dioxin-2-ylmethyl)amino]butoxyl-2-methyl-2H-[1,2,4]triazin-3-one fumarate] |  |  |  |  | 66.1 | 0.107 | 7.65 |  | 0.08 | < 0.04 | 0.31 |
| Cn1ncc(OCCCCNC[C@@H]2COc3ccccc3O2)nc1=O [Compound 21, (R)-5-[4-[(2,3-Dihydrobenzo[1,4]dioxin-2-ylmethyl)amino]butoxy)-2-methyl-2H-[1,2,4]triazin-3-one fumarate] |  |  |  |  |  | 0.331 |  |  |  |  |  |
| Cn1ncc(OCCCCNC[C@H]2COc3ccccc3O2)nc1=O [Compound 22, (S)-5-[4-[(2,3-Dihydrobenzo[1,4]dioxin-2-ylmethyl)amino]butoxy]-2-methyl-2H-[1,2,4]triazin-3-one fumarate] |  |  |  |  |  | 0.0339 |  |  |  |  |  |
| O=C(NCCN1CCN(c2cccc3c2OC[C@H](CO)O3)CC1)c1ccc(F)cc1 [Flesinoxan, reference compound] |  |  |  |  |  |  | 6.50 | 1.25 |  |  |  |
